Laboratory results as given in patent US11225477B2, “Inhibitors of influenza virus replication, application methods and uses thereof” (SUNSHINE LAKE PHARMA CO., LTD., priority 2015, dated 2022).

Tests used:
virus H1N1 A/Weiss/43 [1] = assay: microbe, parasite or virus in culture; type: cell-based; details: Influenza A virus, 120 h; MDCK cells, H1N1 A/Weiss/43, Scheme 1: 8 concentrations 100 μM to 0.05 μM, 5 days, CCK-8
[2] = SD, rat, in vivo, po, 5 mg/kg
Method: (§1) The compounds disclosed herein were administered in form of a saline solution containing 5% DMSO, 5% Kolliphor HS 15 and 90% Saline. […] Plasma samples were collected and stored at −20° C. or −70° C. until LC/MS/MS analysis.

in vivo = details: SD, rat
Method: as §1

virus H1N1 A/Weiss/43 [3] = assay: microbe, parasite or virus in culture; type: cell-based; details: Influenza A virus, 120 h; MDCK cells, H1N1 A/Weiss/43, Scheme 2: 8 concentrations 50 nM to 0.023 nM, 5 days, CCK-8

SMILES	EC50 (virus H1N1 A/Weiss/43 [1]) [nM]	F [2] [%]	AUC(0-inf) (in vivo; iv, 1 mg/kg) [ng·h/mL]	AUC(0-t) (in vivo; iv, 1 mg/kg) [ng·h/mL]	Cmax (in vivo; iv, 1 mg/kg) [ng/mL]	Tmax (in vivo; iv, 1 mg/kg) [min]	Vd (in vivo; iv, 1 mg/kg) [L/kg]	clearance (in vivo; iv, 1 mg/kg) [mL/min/kg]	half-life (in vivo; iv, 1 mg/kg) [min]	AUC(0-inf) (in vivo; po, 5 mg/kg) [ng·h/mL]	AUC(0-t) (in vivo; po, 5 mg/kg) [ng·h/mL]	Cmax (in vivo; po, 5 mg/kg) [ng/mL]	Tmax (in vivo; po, 5 mg/kg) [min]	half-life (in vivo; po, 5 mg/kg) [min]	EC50 (virus H1N1 A/Weiss/43 [3]) [nM]
O=C(O)C1C2CCC(CC2)C1Nc1nc(-c2c[nH]c3ncc(F)cc23)nc2ccccc12 (racemic) [Example 1, (+/−)-trans-3-((2-(5-fluoro-1H-pyrrolo[2,3-b]pyridin-3-yl)quinazolin-4-yl)amino)bicyclo[2.2.2]octane-2-carboxylic Acid]	< 50	42.1	5020	4960	5900	4.98	1.03	3.42	67.8	10600	10100	3130	50	88.8	–
O=C(O)C1C2CCC(CC2)C1Nc1nc(-c2c[nH]c3ncc(F)cc23)nc2c1CCCC2 (racemic) [Example 2, (+/−)-trans-3-((2-(5-fluoro-1H-pyrrolo[2,3-b]pyridin-3-yl)-5,6,7,8-tetrahydroquinazolin-4-yl)amino)bicyclo[2.2.2]octane-2-carboxylic Acid]	< 50	47.1	3470	3440	4910	4.98	1.26	4.9	63.6	8180	8080	4020	25	79.8	–
O=C(O)C1C2CCC(CC2)C1Nc1cc(-c2ccccc2)nc(-c2c[nH]c3ncc(F)cc23)n1 (racemic) [Example 4, (+/−)-trans-3-((2-(5-fluoro-1H-pyrrolo[2,3-b]pyridin-3-yl)-6-phenylpyrimidin-4-yl)amino)bicyclo[2.2.2]octane-2-carboxylic Acid]	< 50	56.4	4610	4540	5980	4.98	0.412	3.66	163	12800	12800	3480	40	178	0.2
